Converted amounts (≈) assume the structure as drawn. “And” between values parts separate entries of the source, which are not always exact repeats. Equal values may be shown once. “Also recorded” adds a separate entry of the source. Read-outs that look alike come from different tables or passages of the source.

Data set [1] deals with T1, Mtb PheRS (Mycobacterium tuberculosis, UniProt P9WFU3). Particulars: for Mode of inhibition with regard to Phe / Mode of inhibition with regard to ATP: Lineweaver-Burk plot; for Mode of inhibition with regard to ATP: no sulfate added.
For data set [2], the target named is T1, Mtb PheRS. Particulars: for Km: read-out: Km, aminoacylation assay.
The target of data set [3] is T1, Mtb PheRS. The experiment in a line: ATP consumption assay (Kinase-Glo), Mtb PheRS. It counts as biochemical. Background: Kinase-Glo measures the ATP left after a reaction by luminescence.
In data set [4] the target is T1, Mtb PheRS. The experiment in a line: biochemical. Particulars: read-out: IC50, AMP Glo, Mtb PheRS.
The target in data set [5] is T1, Mtb PheRS. The experiment in a line: biochemical. To be noted: read-out: IC50, Malachite Green, Mtb PheRS.
A further data set concerns the target T2, hFARS1 (Homo sapiens, UniProt Q9Y285).
T2 sequence (Q9Y285 1-508): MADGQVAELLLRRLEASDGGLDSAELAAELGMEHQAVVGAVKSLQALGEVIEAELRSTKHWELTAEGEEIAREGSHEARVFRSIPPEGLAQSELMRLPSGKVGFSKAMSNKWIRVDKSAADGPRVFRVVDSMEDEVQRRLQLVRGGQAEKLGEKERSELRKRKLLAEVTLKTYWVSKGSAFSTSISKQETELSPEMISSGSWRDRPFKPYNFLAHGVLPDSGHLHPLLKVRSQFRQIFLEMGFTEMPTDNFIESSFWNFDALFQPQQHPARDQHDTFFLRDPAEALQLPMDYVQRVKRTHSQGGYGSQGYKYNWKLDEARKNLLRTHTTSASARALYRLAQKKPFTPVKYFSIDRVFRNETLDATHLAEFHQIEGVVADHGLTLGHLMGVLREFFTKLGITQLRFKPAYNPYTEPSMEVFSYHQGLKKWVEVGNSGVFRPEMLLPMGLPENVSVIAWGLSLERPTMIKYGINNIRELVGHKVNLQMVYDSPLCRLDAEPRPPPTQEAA
T2 sequence (Q9NSD9 1-589 partner): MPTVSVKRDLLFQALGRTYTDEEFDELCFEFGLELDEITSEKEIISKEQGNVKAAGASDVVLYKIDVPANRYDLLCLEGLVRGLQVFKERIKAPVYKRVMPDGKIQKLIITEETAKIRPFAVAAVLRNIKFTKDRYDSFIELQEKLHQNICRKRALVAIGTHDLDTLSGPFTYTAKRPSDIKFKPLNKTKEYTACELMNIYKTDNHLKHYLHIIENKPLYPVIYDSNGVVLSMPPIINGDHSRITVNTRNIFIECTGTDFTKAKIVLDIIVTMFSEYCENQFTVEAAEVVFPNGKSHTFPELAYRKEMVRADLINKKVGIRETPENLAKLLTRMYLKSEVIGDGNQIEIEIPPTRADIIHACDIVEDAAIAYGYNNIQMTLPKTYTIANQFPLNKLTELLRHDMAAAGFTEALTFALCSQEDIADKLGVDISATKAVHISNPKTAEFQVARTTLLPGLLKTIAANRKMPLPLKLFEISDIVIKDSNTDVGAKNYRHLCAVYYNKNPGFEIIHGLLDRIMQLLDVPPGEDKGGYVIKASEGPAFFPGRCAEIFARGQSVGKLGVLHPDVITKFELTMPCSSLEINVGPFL
The experiment in a line: biochemical. To be noted: for IC50: 50 nM enzyme, 2 μM ATP, 20 μM L-Phe, 1 mg/ml yeast total tRNA, 1 h, read-out: IC50, Kinase Glo, hFARS1.

Another data set concerns the target T3, hFARS2 (Homo sapiens, UniProt O95363).
T3 sequence (O95363 38-451 limits assumed): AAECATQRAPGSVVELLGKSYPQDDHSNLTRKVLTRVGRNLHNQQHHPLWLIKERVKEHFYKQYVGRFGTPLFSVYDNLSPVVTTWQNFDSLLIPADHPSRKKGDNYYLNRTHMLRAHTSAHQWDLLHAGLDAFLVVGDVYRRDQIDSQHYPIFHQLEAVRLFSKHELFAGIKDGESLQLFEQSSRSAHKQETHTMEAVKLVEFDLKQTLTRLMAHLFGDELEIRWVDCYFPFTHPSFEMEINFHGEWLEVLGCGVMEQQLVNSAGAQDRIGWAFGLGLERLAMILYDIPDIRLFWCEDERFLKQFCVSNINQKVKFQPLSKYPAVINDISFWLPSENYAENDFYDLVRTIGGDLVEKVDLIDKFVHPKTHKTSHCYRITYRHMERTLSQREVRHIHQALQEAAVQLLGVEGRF
The experiment in a line: biochemical. To be noted: for IC50: E. coli total tRNA 0.5 mg/ml, 1 h, read-out: IC50, Kinase Glo, hFARS2.

A further data set has as its system Mtb H37Rv. The experiment in a line: MIC by microplate alamarBlue assay. It counts as cell-based, Mycobacterium tuberculosis. Particulars: for MIC: Mycobacterium tuberculosis, H37RV, n = 3, read-out: MIC against Mtb H37Rv. For orientation: The colour change of resazurin is a common sign of viable cells or microbes.
For data set [6], the target named is T1, Mtb PheRS. The experiment in a line: biochemical.
A further data set relates to WT H37Rv. The experiment in a line: microbe, parasite or virus in culture. It counts as cell-based. To be noted: Mycobacterium tuberculosis, 264 h, absorbance at 580 nm, 11 days, Gompertz fit.
Data set [7] is described as follows: in vitro. Format: cell-based. Particulars: human. The procedure:
(§1) HEK293T, Vero E6, and HepG2 cells were cultured in Dulbecco's modified Eagle's medium plus 10% fetal bovine serum and 1% penicillin/streptomycin at 37 °C with 5% CO2. Plates of 96 wells were plated with 100 μl 1 × 10^5 cells/ml per well and incubated for 24 h before adding compound in serial dilutions. After another 48 h, 40 μl reagents of CellTiter-Glo cell viability assay (Promega) was added, and the plates were shaken at 400 rpm for 10 min in the dark. Luminescence was recorded with plate reader. The data were analyzed with GraphPad Prism 9.
(§2) HepG2 (A and B) is an immortal cell line derived from human liver cells. HEK-293T (C and
(§3) D) is a human embryonic kidney 293 cell line. Vero E6 is a cell line derived from African
(§4) green monkey kidney epithelial cells. […]

Data set [8] is described as follows: in vitro. It counts as cell-based, human. To be noted: human. How it is done: as §1, §2, §3, §4
For another data set, the system named is HEK-293T. The experiment in a line: in vitro. Format: cell-based, human. Particulars: 48 h. The procedure:
as §1, §2, §3, §4

Data set [9] is described as follows: Cytotoxicity, CellTiter-Glo, Vero E6. Format: cell-based. To be noted: African green monkey, Vero E6 cells. How it is done: as §1, §2, §3, §4
On the technique in general: Cellular ATP, detected with luciferase, serves as a proxy for viable cell number.

Data set [10] is described as follows: in vitro. Format: cell-based. How it is done: as §1
The test system of a further data set is luciferase. The experiment in a line: Counter-screen of Kinase-Glo coupled reaction, Mtb PheRS omitted. To be noted: concentrations up to 20 μM. Format: biochemical.
A further data set relates to PPase, PNPase. The experiment in a line: Counter-screen of PPi production coupled reaction, Mtb PheRS omitted. It counts as biochemical. To be noted: concentrations up to 20 μM.
Another data set concerns HepG2. The experiment in a line: in vitro. It counts as cell-based. To be noted: human, 48 h. The procedure: as §1, §2, §3, §4
A further data set addresses human FAAH. Particulars: cited from earlier work.
Another data set concerns N[C@@H](Cc1ccccc1)C(=O)O. The experiment in a line: purified protein, by the assay type.

T1 sequence (P9WFU3 whole entry): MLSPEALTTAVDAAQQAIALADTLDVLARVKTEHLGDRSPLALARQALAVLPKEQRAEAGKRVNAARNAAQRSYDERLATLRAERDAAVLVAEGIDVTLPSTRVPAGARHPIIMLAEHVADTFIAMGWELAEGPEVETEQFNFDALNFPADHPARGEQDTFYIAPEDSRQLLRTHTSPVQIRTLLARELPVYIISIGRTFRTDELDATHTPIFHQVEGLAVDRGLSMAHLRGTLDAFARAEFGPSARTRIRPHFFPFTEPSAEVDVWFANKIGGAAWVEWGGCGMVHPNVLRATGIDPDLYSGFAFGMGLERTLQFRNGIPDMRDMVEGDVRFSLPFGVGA
T1 sequence (P9WFU1 whole entry, further chain): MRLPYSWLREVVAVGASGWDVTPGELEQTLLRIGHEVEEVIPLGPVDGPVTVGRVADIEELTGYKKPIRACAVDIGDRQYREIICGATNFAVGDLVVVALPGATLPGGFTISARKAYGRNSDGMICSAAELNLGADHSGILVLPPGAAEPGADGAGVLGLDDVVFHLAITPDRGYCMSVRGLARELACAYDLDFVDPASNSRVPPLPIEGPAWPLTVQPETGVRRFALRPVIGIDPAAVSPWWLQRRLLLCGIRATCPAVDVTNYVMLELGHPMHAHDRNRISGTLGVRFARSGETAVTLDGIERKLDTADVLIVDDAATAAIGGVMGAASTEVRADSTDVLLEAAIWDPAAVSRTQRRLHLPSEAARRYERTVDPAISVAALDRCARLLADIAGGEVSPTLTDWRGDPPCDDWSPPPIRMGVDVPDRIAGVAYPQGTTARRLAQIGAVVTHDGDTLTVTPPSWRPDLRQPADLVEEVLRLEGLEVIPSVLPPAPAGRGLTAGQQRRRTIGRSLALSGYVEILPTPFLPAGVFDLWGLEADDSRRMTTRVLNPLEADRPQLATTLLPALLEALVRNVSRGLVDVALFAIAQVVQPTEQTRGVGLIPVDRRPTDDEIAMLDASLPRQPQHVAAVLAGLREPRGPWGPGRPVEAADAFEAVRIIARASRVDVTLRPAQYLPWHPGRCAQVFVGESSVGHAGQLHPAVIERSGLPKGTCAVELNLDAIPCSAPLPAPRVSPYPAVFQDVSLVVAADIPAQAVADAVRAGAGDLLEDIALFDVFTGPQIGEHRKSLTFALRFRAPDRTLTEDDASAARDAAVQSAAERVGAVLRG

The term Km denotes the substrate concentration at which the rate is half of its maximum. For the molecule `Nc1ncnc2c1ncn2[C@@H]1O[C@H](COP(=O)(O)OP(=O)(O)OP(=O)(O)O)[C@@H](O)[C@H]1O` [ATP], the Km was 162 ± 11.6 µM at Mtb PheRS [1] (read-out: apparent Km, PPi production assay) and 387 ± 279 µM at Mtb PheRS [2]. Also, on Mtb PheRS [2] (substrate of Mtb PheRS), the “kcat, aminoacylation assay” value was found to be 0.405 ± 0.417 s⁻¹.
Usually IC50 stands for the concentration needed to halve the response being measured. By Ki is commonly meant a measure of affinity in units of concentration, obtained from inhibition or displacement. On to `O=C(Nc1cccc(S(=O)(=O)NCCc2c[nH]c3ccccc23)c1)Nc1nccs1` [GDI05-001], for which the IC50 at Mtb PheRS [3] is 1.72 ± 0.13 µM; at Mtb PheRS [4], 0.87 ± 0.06 µM; at Mtb PheRS [5] it was 0.52 ± 0.06 µM; on hFARS1, over 200 µM; on hFARS2, 85.4 µM; on Mtb PheRS [6] it was 1.34 µM. Moreover, in the data set on Mtb H37Rv, the MIC is 145 µM (≈ 64 µg/mL). Further, the “Mode of inhibition with regard to Phe” value on Mtb PheRS [1] was “Phe competitive inhibitors”. Besides, the “Mode of inhibition with regard to ATP” value on Mtb PheRS [1] is given as “noncompetitive”. On Mtb PheRS [6] (Ki in the Phe-competitive mode), the inhibition constant Ki was 0.2 ± 0.01 µM.
In general, CC50 refers to the concentration at which the toxic effect on the cells reaches its halfway point. As to `O=C(Nc1cccnc1)N1CCC(Cc2cccc(Oc3ccc(C(F)(F)F)cn3)c2)CC1` [PF-3845], the half-inhibitory concentration (IC50) at Mtb PheRS [3] is 2.65 ± 0.19 µM; on Mtb PheRS [4] it was 2.49 ± 0.19 µM; at Mtb PheRS [5], 1.95 ± 0.19 µM; at hFARS1 it was over 200 µM; at hFARS2 it was over 200 µM; on Mtb PheRS [6], 2.4 µM. In addition, the “Inhibition of human cytoplasmic PheRS” value on hFARS1 (concentrations up to 200 μM) is given as “does not inhibit”. In addition, the “Inhibition of human mitochondrial PheRS” value on hFARS2 (concentrations up to 200 μM) was “does not inhibit”. Moreover, the results for the MIC with Mtb H37Rv and against WT H37Rv were about 24 µM (≈ 11 µg/mL) and 220 µM (≈ 100 µg/mL), respectively. In the data set with Mtb H37Rv (n = 3), the “MIC against Mtb H37Rv” value was about 23.87 µM (≈ 10.9 µg/mL). In addition, the CC50 in the data set “in vitro [7]” (48 h, CellTiter-Glo, read-out: CC50, HepG2) is 21.7 ± 1.53 µM; in the data set “in vitro [8]” (48 h, CellTiter-Glo, read-out: CC50, HEK-293T), 16.9 ± 1.54 µM; in the data set with HEK-293T (CellTiter-Glo, read-out: CC50, HEK-293T) it was 16.9 µM; in “in vitro [10]” (human, African green monkey), 16.9 to 25.8 µM; in “in vitro [10]” (two human cell lines, preliminary result, read-out: CC50 against human cell lines (range)), 16.9 to 21.7 µM. Moreover, the CC50 at 48 h in [9] was found to be 21.7 µM. In addition, in the data set with luciferase, the “Inhibition of luciferase (Kinase-Glo coupled reaction)” value was “did not inhibit”. Further, the “Inhibition of PPase and PNPase (PPi production coupled reaction)” value in the data set with PPase, PNPase is “did not inhibit”. For the same molecule, at Mtb PheRS [1], the “Mode of inhibition with regard to tRNAPhe” value is listed as “uncompetitive inhibitor; also recorded: uncompetitive inhibition mode”. For the same molecule, the “Mode of inhibition with regard to ATP in the presence of sulfate” value at Mtb PheRS [1] (5 mM (NH4)2SO4) was “competitive inhibition mode; also recorded: ATP competitive inhibitor”. Further, the “Mode of inhibition with regard to Phe” value at Mtb PheRS [1] is given as “Phe competitive inhibitors; also recorded: competitive inhibition mode”. Also, the “Mode of inhibition with regard to ATP” value at Mtb PheRS [1] is “mixed inhibition mode”. Further, the Ki on Mtb PheRS [6] (Ki in the Phe-competitive mode) is 1.7 ± 0.11 µM; on Mtb PheRS [6] (Ki with regard to ATP when SO4 2- was absent, mixed inhibition mode, no sulfate), 1.08 ± 0.245 µM; on Mtb PheRS [6] (Ki with regard to ATP, competitive, with sulfate, 5 mM (NH4)2SO4 in the PheRS enzyme reaction), ~0.73 µM and 0.73 µM.
Take `O=C(Nc1cccnn1)N1CCC(=Cc2cccc(Oc3ccc(C(F)(F)F)cn3)c2)CC1` [PF-04457845]: the concentration for half-maximal inhibition (IC50) against Mtb PheRS [3] was 9.76 ± 0.73 µM; at Mtb PheRS [4], 10.1 ± 1.02 µM; on Mtb PheRS [5], 11.7 ± 1.43 µM; at hFARS1 it was over 200 µM; at hFARS2 it was over 200 µM; against Mtb PheRS [6], 12 µM. Moreover, the CC50 at 48 h is 25.8 ± 2.88 µM in “in vitro [7]” (CC50, HepG2); 23.6 ± 1.93 µM in the data set “in vitro [8]” (CC50, HEK-293T); 23.6 to 25.8 µM in the data set “in vitro [10]” (human). The CC50 in the data set on HepG2 was 25.8 µM; in the data set with HEK-293T (human) it was 23.6 µM; in the data set “in vitro [10]” (human, African green monkey) it was 16.9 to 25.8 µM. On human FAAH, the “kinact/Ki for covalent inhibition of human FAAH” value is 40,300 M^−1s^−1.
With `N[C@@H](Cc1ccccc1)C(=O)O` [Phe, phenylalanine], the Km on Mtb PheRS [2] was determined as 68 ± 6.6 µM.
On to (Mycobacterium tuberculosis H37Rv), for which, in the data set with N[C@@H](Cc1ccccc1)C(=O)O (pH 7.4), the Michaelis-Menten constant (Km) is 18.10 ± 2.44 µM.
In general, kcat refers to the number of substrate molecules converted per active site and unit of time at saturation. For orientation: kcat/Km means the second-order rate constant that governs catalysis at low substrate concentration. Turning to “Mtb PheRS (Mycobacterium tuberculosis H37Rv)”, in the data set with N[C@@H](Cc1ccccc1)C(=O)O, the Michaelis constant (Km) is 68.0 ± 6.6 µM, the kcat stood at 1.1 ± 0.0517 s⁻¹ and the kcat/Km turned out to be 16200 M⁻¹ s⁻¹.

These data come from paper PMC7948948 (The Journal of Biological Chemistry, 2021).
